Experimental data from patent US11332451B2, “RIP1 inhibitory compounds and methods for making and using the same” (priority 2018, dated 2022).

Test system: TNF-alpha induced hypothermia
Assay: acute hypothermia mouse model (TNF-alpha/zVAD-FMK induced hypothermia)
Format: in vivo, mice
Settings: dose of 5 mg/kg, oral gavage
Method: In this example, an acute hypothermia mouse model assay was used to evaluate the ability of compounds disclosed herein to inhibit TNF-alpha induced hypothermia.
Female C57BL/6 mice are randomly grouped and weighed on Day −1. On the day of the study (Day 0), mice are administered vehicle or test article by oral gavage. Fifteen minutes after oral administration of test agents, each mouse is administered an intraperitoneal (IP) injection of solution containing recombinant human tumor necrosis factor alpha (TNF-a, 25.0 μg) and zVAD-FMK (200 μg). Body temperature is measured at 0 hours (before IP injections) and every hour via rectal probe temperature measuring device. Three (3) hours after IP injections of TNF-α and zVAD/FMK, mice are euthanized by CO2 asphyxiation and blood is collected via cardiac puncture. Serum and plasma are harvested for determination of cytokine and compound levels, respectively. Separate groups of mice (satellite mice) are included for the determination of compound levels in plasma at the time of administration of TNFa/zVAD-FMK.
(S)-5-benzyl-N-(5-methyl-4-oxo-2,3,4,5-tetrahydrobenzo[b][1,4]oxazepin-3-yl)-4H-1,2,4-triazole-3-carboxamide (WO 2014/125444), having a structure as illustrated below, was used as a comparative compound and was examined using a similar protocol as described by WO 2014/125444.

## CN1C(=O)[C@@H](NC(=O)c2n[nH]c(Cc3ccccc3)n2)COc2ccc(C#CC(C)(C)O)cc21 [Compound I-30, (S)-5-benzyl-N-(7-(3-hydroxy-3-methylbut-1-yn-1-yl)-5-methyl-4-oxo-2,3,4,5-tetrahydrobenzo[b][1,4]oxazepin-3-yl)-1H-1,2,4-triazole-3-carboxamide]
  inhibition of TNF-alpha induced hypothermia: greater than 85%
